Test results from article PMC4428793, “MK571 inhibits phase-2 conjugation of flavonols by Caco-2/TC7 cells, but does not specifically inhibit their apical efflux^” (Biochemical Pharmacology, 2015).

How the values were obtained:
Caco-2/TC7 cells = assay: Flavonol metabolism and transport experiments on Caco-2/TC7 transwell monolayers, effect of MK571; format: cell-based, human; conditions: apical to basolateral ratio of efflux of the conjugate, 60 min, 12-well transwells
Procedure: Cells were grown at 37 °C in a humidified incubator with 5% CO2 in Dulbecco Modified Eagle's Medium (DMEM) containing 1% non-essential amino acids, 1% L-glutamine, 100 IU/mL penicillin and 100 μg/mL streptomycin, 1 g/L glucose, and supplemented with 20% (v/v) heat inactivated fetal calf serum. Cells were passaged at 80% confluency, and seeded at 2–4 × 10^4 cells per cm^2 on 10 cm dishes (growing area 75 cm^2) or 12-well transwells (growing area of 1.1 cm^2). […] Toxicity of MK571 on Caco-2/TC7 cell monolayers was determined through comparison of pre- and post-loading TEER values of wells incubated with MK571.
Flavonol stocks (quercetin, kaempferol, galangin; 10 mM) were prepared in dimethylsulfoxide (DMSO) and stored at −20 °C. MK571 was dissolved in dimethyl sulfoxide (10 mM final concentration) and stored at −20 °C. Prior to the metabolism or transport experiments, cells were aspirated of media and washed three times with phosphate buffered saline (PBS). To foetal calf serum and phenol red-free DMEM was added ascorbic acid at a final concentration of 100 μM as well as MK571 at the desired concentration. For metabolism experiments, 10 mL of this media was added to the cells in 10 cm dishes. For transport experiments using transwells, 0.6 mL of this media was added to the apical compartment of the transwell and 1 mL was added to the basolateral compartment. Control wells received an equivalent dose of dimethyl sulfoxide as the treatment wells. Cells were incubated at 37 °C for 30 min, after which flavonols dissolved in dimethyl sulfoxide (kaempferol, galangin or quercetin) were added to the media of treatment wells at a final concentration of 40 or 100 μM, while control wells were treated with the dimethyl sulfoxide vehicle alone. Concentrations of quercetin were increased to 100 μM because instability of quercetin in media necessitated higher initial loading to maintain adequate cellular and media concentrations for uptake and metabolism of the flavonol. Control and treatment cells were incubated at 37 °C for the periods indicated in the results.
Following the required incubation period, media and cell fractions were harvested and analysed to identify and quantify flavonol metabolites using HPLC. Media was removed from the apical (0.5 mL) and basolateral (0.5 mL) compartments of transwells and added to 25 μL trifluoroacetic acid and 25 μL HPLC grade acetonitrile. Media from 10 cm dishes (1 mL) was removed and added to 50 μL trifluoroacetic acid and 25 μL HPLC grade acetonitrile. Cells were washed three times with cold (room temperature) phosphate buffered saline solution and scraped free of the dish surface. For transwells, 100 μL MilliQ water was added to the cells and the resulting cell suspension pipetted into 10 μL trifluoroacetic acid and 10 μL HPLC grade acetonitrile. For 10 cm dishes, the resulting cell suspension was pipetted into 25 μL trifluoroacetic acid and 25 μL HPLC grade acetonitrile. Samples were either analysed immediately or otherwise stored at −20 °C prior to HPLC analysis. Flavonols were stable during frozen storage and thawing (no significant losses up to 26 weeks).
Media samples were thawed where necessary and then mixed using a vortex mixer, centrifuged for 10 min at 14,000 × g using a micro centrifuge, and the supernatant removed and placed in an HPLC vial for analysis. Cell samples were vortex-mixed and then ultra-sonicated (sonic water bath) for 10 min, vortex mixed again and then centrifuged for 10 min at 14,000 × g using a micro-centrifuge, before removal of supernatant for HPLC analysis. Identification and quantification of individual flavonol metabolites was carried out using liquid chromatography–mass spectrometry and nuclear magnetic resonance analyses, as described previously. […]

Caco-2/TC7 cell lysate = assay: Flavonol conjugate production by Caco-2/TC7 cell free lysate, effect of MK571; format: biochemical, human; conditions: aglycone 40 μM; for Change in rate (%): MK571 50 μM vs control; for Rate +MK571 (conjugate production): MK571 50 μM; for Rate +MK571 (conjugate production) / Rate control (conjugate production): slope (standard error of the slope); for Rate control (conjugate production): no MK571
Procedure: Cells were grown until 21 days post confluent and washed and aspirated as described previously. The cells were then scraped into tubes and these tubes kept on ice at all times throughout the preparation procedure. Homogenisation buffer comprised of sodium phosphate buffer (50 mM adjusted to pH 6.5; 20 mL), two mini protease inhibitor cocktail tablets containing EDTA and perfabloc, dithiothreitol (30.8 mg), alamethacin (20 μL of a 22 μg/mL) solution from T. viride; and MgCl2 (3.5 mg). Cell-free homogenates were prepared by mixing cells with homogenisation buffer (50:50, vol/vol) and vortexing with glass beads in an eppendorf tube three times for 1 min over a 10 min period. To 900 μL of cell free lysate was added 10 μL uridine 5′-diphosphoglucuronic acid (4 mM final concentration) with uridine 5′-diphospho-N-acetyl-glucosamine (dissolved in homogenisation buffer, 2 mM final concentration); 10 μL MK571 (50 mmol/L stock diluted 1:9 with homogenisation buffer) or 10 μL dimethyl sulfoxide blank (diluted 1:9 with homogenisation buffer). The tubes were allowed to warm and once they reached 37 °C, the flavonols were added at the relevant concentration (kaempferol, quercetin or galangin; 10 mmol/L stock in dimethyl sulfoxide diluted 1:1 with homogenisation buffer, plus homogenisation buffer added to create a final volume of 1000 μL) and the tube vortexed briefly. The experiment was stopped by addition of a mixture of 50 μL trifluoracetic acid and 50 μL acetonitrile. Samples were then centrifuged for 10 min at 14,000 × g. The supernatant was removed and analysed via HPLC.

| Ap:Bl ratio (50 μM MK571) (Caco-2/TC7 cells) | Ap:Bl ratio (100 μM MK571) (Caco-2/TC7 cells) | Ap:Bl ratio (No MK571) (Caco-2/TC7 cells) | Rate +MK571 (conjugate production) (Caco-2/TC7 cell lysate) | Rate control (conjugate production) (Caco-2/TC7 cell lysate) | Compound | Change in rate (%) (Caco-2/TC7 cell lysate) |
| --- | --- | --- | --- | --- | --- | --- |
| 0.33 (±0.080) | 0.43 (±0.018) | 0.26 (±0.066) |  |  | O=C(O)[C@H]1O[C@@H](Oc2ccc(-c3oc4cc(O)cc(O)c4c(=O)c3O)cc2)[C@H](O)[C@@H](O)[C@@H]1O [K-4′-GlcA, kaempferol-4′-glucuronide] |  |
| 0.30 (±0.024) |  | 0.19 (±0.020) |  |  | O=C(O)C1OC(Oc2cc(O)cc3oc(-c4ccccc4)c(O)c(=O)c23)C(O)C(O)C1O (centres unmarked) [G-5-GlcA] |  |
| 9.10 (±0.783) |  | 13.6 (±1.440) |  |  | galangin sulphate [G-S] |  |
|  |  |  | 1.29 (±0.26) pmol/h | 1.89 (±0.16) pmol/h | O=C(O)[C@H]1O[C@@H](Oc2cc(O)c3c(=O)c(O)c(-c4ccc(O)c(O)c4)oc3c2)[C@H](O)[C@@H](O)[C@@H]1O [Q-7-GlcA] | −31.8% |
| 0.51 (±0.036) |  | 0.54 (±0.058) | 19.8 (±1.63) pmol/h | 36.5 (±1.49) pmol/h | O=C(O)[C@H]1O[C@@H](Oc2cc(O)c3c(=O)c(O)c(-c4ccccc4)oc3c2)[C@H](O)[C@@H](O)[C@@H]1O [G-7-GlcA, galangin-7-glucuronide] | −45.7% |
|  |  |  | 1.40 (±0.08) pmol/h | 1.73 (±0.16) pmol/h | O=C(O)[C@H]1O[C@@H](Oc2c(-c3ccc(O)cc3)oc3cc(O)cc(O)c3c2=O)[C@H](O)[C@@H](O)[C@@H]1O [K-3-GlcA, kaempferol-3-glucuronide] | −19.3% |
| 0.35 (±0.063) | 0.44 (±0.021) | 0.28 (±0.044) | 0.69 (±0.02) pmol/h | 1.12 (±0.09) pmol/h | O=C(O)[C@H]1O[C@@H](Oc2cc(O)c3c(=O)c(O)c(-c4ccc(O)cc4)oc3c2)[C@H](O)[C@@H](O)[C@@H]1O [K-7-GlcA, kaempferol-7-glucuronide] | −38.2% |
| 100% apical |  | 100% apical | 2.62 (±0.24) pmol/h | 2.09 (±0.12) pmol/h | O=C(O)[C@H]1O[C@@H](Oc2cc(-c3oc4cc(O)cc(O)c4c(=O)c3O)ccc2O)[C@H](O)[C@@H](O)[C@@H]1O [Q-3′-GlcA] | +25.6% |
| 0.35 (±0.091) |  | 0.24 (±0.033) | 25.3 (±2.30) pmol/h | 68.8 (±6.12) pmol/h | O=C(O)[C@H]1O[C@@H](Oc2c(-c3ccccc3)oc3cc(O)cc(O)c3c2=O)[C@H](O)[C@@H](O)[C@@H]1O [G-3-GlcA, galangin-3-glucuronide] | −63.2% |
|  |  |  | 0.83 (±0.14) pmol/h | 1.05 (±0.09) pmol/h | O=C(O)[C@H]1O[C@@H](Oc2c(-c3ccc(O)c(O)c3)oc3cc(O)cc(O)c3c2=O)[C@H](O)[C@@H](O)[C@@H]1O [Q-3-GlcA] | −21.8% |
| 3.92 (±0.646) | 0.14 (±0.006) | 3.02 (±0.230) |  |  | kaempferol sulphate [K-S] |  |
| 0.42 (±0.121) | 0.43 (±0.028) | 0.59 (±0.174) | 0.34 (±0.02) pmol/h | 0.54 (±0.04) pmol/h | kaempferol-sulfo-glucuronide [K-S-GlcA] |  |
| 0.25 (±0.035) |  | 0.23 (±0.034) | 0.28 (±0.03) pmol/h | 0.25 (±0.01) pmol/h | O=C(O)[C@H]1O[C@@H](Oc2ccc(-c3oc4cc(O)cc(O)c4c(=O)c3O)cc2O)[C@H](O)[C@@H](O)[C@@H]1O [Q-4′-GlcA] | +12.1% |
